Measured values: patent US11000528B2, “Compound useful for the treatment of degenerative and inflammatory diseases” (Galapagos NV, priority 2009, dated 2021)
pEC50: −log10 of the molar value. Blank lines part the entries; values can stand above or below the compound they belong to.

Key:
[1] = Pharmacokinetic study in rodents (Sprague-Dawley rats); assay type: in vivo; conditions: male, plasma; Sprague-Dawley rat, IV 1 mg/kg
Method: Sprague-Dawley rats (male, 5-6 weeks old) were obtained from Janvier (France). Rats were acclimatized for at least 7 days before treatment and were kept on a 12 hr light/dark cycle (0700-1900). Temperature was maintained at approximately 22° C., and food and water were provided ad libitum. […] After the surgery, rats were housed individually. Rats were deprived of food for at least 16 hours before oral dosing and 6 hours after. Water was provided ad libitum.
Test compounds were orally dosed as a single esophageal gavage at 5 mg/kg under a dosing volume of 5 ml/kg and intravenously dosed as a bolus via the caudal vein at 1 mg/kg under a dosing volume of 5 mL/kg. Each group consisted of 3 rats. […] For compound 11, blood samples were collected at the retro-orbital sinus with lithium heparin as anti-coagulant at the following time points 0.25, 1, 3 and 6 hrs (oral route). Whole blood samples were centrifuged at 5000 rpm for 10 min and the resulting plasma samples were stored at −20° C. pending analysis.
Plasma concentrations of each test compound were determined by an LC-MS/MS method in which the mass spectrometer was operated in positive electrospray mode.
Pharmacokinetic parameters were calculated using Winnonlin® (Pharsight®, United States).

[2] = Microsomal stability, rat liver microsomes; assay type: in vitro ADME; conditions: 3 μM compound
Method: (§1) A 10 mM stock solution of compound in DMSO was diluted 1000 fold in a 182 mM phosphate buffer pH7.4 in a 96 deep well plate (Greiner, Cat no. 780285) and pre-incubated at 37° C.
(§2) 40 μL of deionised water was added to a well of a polypropylene Matrix 2D barcode labelled storage tube (Thermo Scientific) and pre-incubated at 37° C.
(§3) A Glucose-6-phophate-dehydrogenase (G6PDH) working stock solution was prepared in 182 mM phosphate buffer pH7.4 and placed on ice before use. A co-factor containing MgCl2, glucose-6-phosphate and NADP+ was prepared in deionised water and placed on ice before use.
(§4) A final working solution containing liver microsomes (Xenotech) of a species of interest (human, mouse, rat, dog), previously described G6PDH and co-factors was prepared and this mix was incubated for no longer than 20 minutes at room temperature.
(§5) 30 μL of the pre-heated compound dilution was added to 40 μL of pre-heated water in the Matrix tubes and 30 μL of the microsomal mix was added. Final reaction concentrations were 3 μM compound, 1 mg microsomes, 0.4 U/mL GDPDH, 3.3 mM MgCl2, 3.3 mM glucose-6-phosphate and 1.3 mM NADP+.
(§6) To measure percentage remaining of compound at time zero MeOH or ACN was added (1:1) to the well before adding the microsomal mix. The plates were sealed with Matrix Sepra Seals™ (Matrix, Cat. No. 4464) and shaken for a few seconds ensure complete mixing of all components.
(§7) The samples which were not stopped are incubated at 37° C., 300 rpm and after 1 hr of incubation the reaction was stopped with MeOH or ACN (1:1).
(§8) After stopping the reaction the samples were mixed and placed on ice for 30 min to precipitate the proteins. The plates were then centrifuged 30 min at 1200 rcf at 4° C. and the supernatant was transferred to a 96 v-bottom PP plate (Greiner, 651201) for analysis on LCMS.
(§9) These plates were sealed with sealing mats (MA96RD-04S) of www.kinesis.co.uk and samples were measured at room temperature on LCMS (ZQ 1525 from Waters) under optimized conditions using Quanoptimize to determine the appropriate mass of the parent molecule.
(§10) The samples were analyzed on LCMS with a flow rate of 1 mL/min. Solvent A was 15 mM ammonia and solvent B was methanol or acetonitrile, depending on the stop solution used. The samples were run under positive ion spray on an XBridge C18 […] (2.1×30 mm) column, from Waters.
(§11) Peak area from the parent compound at time 0 was considered to be 100% remaining. The percentage remaining after 1 hr incubation was calculated from time 0 and was calculated as the percentage remaining. The solubility of the compound in the final test concentration in buffer is inspected by microscope and results are reported.
(§12) The data on microsomal stability are expressed as a percentage of the total amount of compound remaining after 60 min.

rat CIA model = assay: Rat collagen induced arthritis (CIA) model; assay type: in vivo; parameters: key to Clinical Assessment End point score / Clinical Assessment AUC Score / Paw swelling / Larsen' Score: a “*” indicates that there was a statistically significant improvement in the score, p 0.05 vs. untreated control; conditions: for Clinical Assessment AUC Score / Clinical Assessment End point score: normalized score
Method: Dark Agouti rats (male, 7-8 weeks old) were obtained from Harlan Laboratories (Maison-Alfort, France). Rats were kept on a 12 hr light/dark cycle (0700-1900). Temperature was maintained at 22° C., and food and water were provided ad libitum.
One day before the experiment, CII solution (2 mg/mL) was prepared with 0.05 M acetic acid and stored at 4° C. Just before the immunization, equal volumes of adjuvant (IFA) and CII were mixed by a homogenizer in a pre-cooled glass bottle in an ice water bath. Extra adjuvant and prolonged homogenization may be required if an emulsion is not formed. 0.2 mL of the emulsion was injected intradermally at the base of the tail of each rat on day 1, a second booster intradermal injection (CII solution at 2 mg/mL in CFA 0.1 mL saline) was performed on day 9. This immunization method was modified from published methods (Sims et al, 2004; Jou et al., 2005).
The therapeutic effects of the compounds were tested in the rat CIA model. Rats were randomly divided into equal groups and each group contained 10 rats. All rats were immunized on day 1 and boosted on day 9. Therapeutic dosing lasted from day 16 to day 30. The negative control group was treated with vehicle (MC 0.5%) and the positive control group with Enbrcl (10 mg/kg, 3× week., s.c.). A compound of interest was typically tested at 3 doses, e.g. 3, 10, 30 mg/kg, p.o.
Arthritis is scored according to the method of Khachigian 2006, Lin et al 2007 and Nishida et al. 2004). The swelling of each of the four paws is ranked with the arthritic score as follows: 0-no symptoms; 1-mild, but definite redness and swelling of one type of joint such as the ankle or wrist, or apparent redness and swelling limited to individual digits, regardless of the number of affected digits; 2-moderate redness and swelling of two or more types of joints; 3-severe redness and swelling of the entire paw including digits; 4-maximally inflamed limb with involvement of multiple joints (maximum cumulative clinical arthritis score 16 per animal) (Nishida et al., 2004).
To permit the meta-analysis of multiple studies the clinical score values were normalised as follows:
AUC of clinical score (AUC score): The area under the curve (AUC) from day 1 to day 14 was calculated for each individual rat. The AUC of each animal was divided by the average AUC obtained for the vehicle in the study from which the data on that animal was obtained and multiplied by 100 (i.e. the AUC was expressed as a percentage of the average vehicle AUC per study).
Clinical score increase from day 1 to day 14 (End point score): The clinical score difference for each animal was divided by the average clinical score difference obtained for the vehicle in the study from which the data on that animal was obtained and multiplied by 100 (i.e. the difference was expressed as a percentage of the average clinical score difference for the vehicle per study).
X-ray photos were taken of the hind paws of each individual animal. A random blind identity number was assigned to each of the photos, and the severity of bone erosion was ranked by two independent scorers with the radiological Larsen's score system as follows: 0—normal with intact bony outlines and normal joint space; 1—slight abnormality with any one or two of the exterior metatarsal bones showing slight bone erosion; 2—definite early abnormality with any three to five of the exterior metatarsal bones showing bone erosion; 3—medium destructive abnormality with all the exterior metatarsal bones as well as any one or two of the interior metatarsal bones showing definite bone erosions; 4—severe destructive abnormality with all the metatarsal bones showing definite bone erosion and at least one of the inner metatarsal joints completely eroded leaving some bony joint outlines partly preserved; 5—mutilating abnormality without bony outlines. This scoring system is a modification from Salvemini et al., 2001; Bush et al., 2002; Sims et al., 2004; Jou et al., 2005.

[3] = system: Circulating TNF alpha levels; assay: Septic shock model (LPS-induced TNF alpha release); assay type: in vivo, mouse; conditions: BALB/cJ mice, 30 mg/kg po, LPS 15 μg/kg ip
Method: Injection of lipopolysaccharide (LPS) induces a rapid release of soluble tumour necrosis factor (TNF-alpha) into the periphery. This model was used to analyse prospective blockers of TNF release in vivo. Six BALB/cJ female mice (20 g) per group were treated at the intended dosing once, po. Thirty minutes later, LPS (15 μg/kg; E. coli serotype 0111:B4) was injected ip. Ninety minutes later, mice were euthanized and blood was collected. Circulating TNF alpha levels were determined using commercially available ELISA kits. Dexamethasone ([…]) was used as a reference anti-inflammatory compound. Selected compounds were tested at one or multiple doses, e.g. 3 and/or 10 and/or 30 mg/kg, po.

[4] = system: MMP13 levels in human chondrosarcoma cell line SW1353; assay: cells; conditions: SW1353, 48 h
Method: The cells were seeded in 96 well plates at 15,000 cells/well in a volume of 120 μL DMEM (Invitrogen) containing 10% (v/v) FBS and 1% penicillin/streptomycin (InVitrogen) incubated at 37° C. 5% CO2. Cells were preincubated with 15 μL of compound in M199 medium with 2% DMSO 1 hr before triggering with 15 μL OSM and IL-1β to reach 25 ng/mL OSM and 1 ng/mL IL-1β, and MMP13 levels were measured in conditioned medium 48 hours after triggering. MMP13 activity was measured using an antibody capture activity assay. For this purpose, 384 well plates (NUNC, 460518, MaxiSorb black) were coated with 35 μL of a 1.5 μg/mL anti-human MMP13 antibody (R&D Systems, MAB511) solution for 24 hrs at 4° C. After washing the wells 2 times with PBS+0.05% Tween, the remaining binding sites were blocked with 100 μL 5% non-fat dry milk (Santa Cruz, sc-2325, Blotto) in PBS for 24 hr at 4° C. […] After incubation for 24 hrs at 37° C. fluorescence of the converted substrate was measured in a Perkin Elmer Wallac EnVision 2102 Multilabel Reader (wavelength excitation: 320 nm, wavelength emission: 405 nm). Percentage inhibition=((fluorescence determined in the presence of vehicle−fluorescence determined for sample with test compound present) divided by (fluorescence determined in the presence of vehicle−fluorescence determined for sample without trigger))*100.

[5] = Microsomal stability, human liver microsomes; assay type: in vitro ADME; conditions: 3 μM compound
Method: as §1, §2, §3, §4, §5, §6, §7, §8, §9, §10, §11, §12

[6] = system: JAK-STAT signalling in HeLa cells; assay: JAK-STAT signalling assay (OSM-triggered pSTAT1(2)-luciferase reporter in HeLa cells); assay type: cell-based; conditions: Homo sapiens, human OSM 33 ng/mL, STAT1 luciferase reporter
Method: HeLa cells were maintained in Dulbecco's Modified Eagle's Medium (DMEM) containing 10% heat inactivated fetal calf serum, 100 U/mL penicillin and 100 μg/mL streptomycin. HeLa cells were used at 70% confluence for transfection. 20,000 cells in 87 μL cell culture medium were transiently transfected with 40 ng pSTAT1(2)-luciferase reporter (Panomics), 8 ng of LacZ reporter as internal control reporter and 52 ng of pBSK using 0.32 μL Jet-PEI (Polyplus) as transfection reagent per well in 96-well plate format. After overnight incubation at 37° C., 10% CO2, transfection medium was removed.
40 μL of cell lysate was used to read β-galactosidase activity by adding 180 μL β-Gal solution (30 μL ONPG 4 mg/mL+150 μL β-Galactosidase buffer (0.06 M Na2HPO4, 0.04 M NaH2PO4, 1 mM MgCl2)) for 20 min.
The positive and negative controls were used to calculate z′ and ‘percent inhibition’ (PIN) values.
PIN values were plotted for compounds tested in dose-response and EC50 values were derived.

- C0 [1]: 1410 ng/mL
- microsomal stability, percentage of compound remaining after 60 min, Rat [2]: 65.6%
- microsomal stability, percentage of compound remaining after 60 min, Human [5]: 87.2%
SMILES: O=C(Nc1nc2cccc(-c3ccc(CN4CCS(=O)(=O)CC4)cc3)n2n1)C1CC1 [Compound 1, Cyclopropanecarboxylic acid {5-[4-(1,1-dioxo-1-thiomorpholin-4-ylmethyl)-phenyl]-[1,2,4]triazolo[1,5-a]pyridin-2-yl}-amide]
- Clinical Assessment AUC Score (rat CIA model; 0.1 mg/kg/day p.o.): *
- Clinical Assessment End point score (rat CIA model; 0.1 mg/kg/day p.o.): *
- Paw swelling (rat CIA model; 0.3 mg/kg/day p.o.): *
- Clinical Assessment AUC Score (rat CIA model; 0.3 mg/kg/day p.o.): *
- Clinical Assessment End point score (rat CIA model; 0.3 mg/kg/day p.o.): *
- Paw swelling (rat CIA model; 1 mg/kg/day p.o.): *
- Clinical Assessment AUC Score (rat CIA model; 1 mg/kg/day p.o.): *
- Clinical Assessment End point score (rat CIA model; 1 mg/kg/day p.o.): *
- Larsen' Score (rat CIA model; 3 mg/kg/day p.o.): *
- Paw swelling (rat CIA model; 3 mg/kg/day p.o.): *
- Clinical Assessment AUC Score (rat CIA model; 3 mg/kg/day p.o.): *
- Clinical Assessment End point score (rat CIA model; 3 mg/kg/day p.o.): *
- normalized clinical score values (calculated as AUC or as the difference from day 1 to day 14) (rat CIA model; dose of 0.1 mg/kg): statistically significant improvements
- paw swelling readout (rat CIA model; dose of 0.3 mg/kg): statistically significant increase
- Larsen score (rat CIA model; dose of 3 mg/kg): statistically significant increase
- improvement in efficacy over Compound 2 when the oral doses are compared (rat CIA model; oral doses compared): 100 fold
- activity in septic shock model (blocking of TNF release) [3]: active
- pEC50 [4]: 5.65

- C0 [1]: 863 ng/mL
- microsomal stability, percentage of compound remaining after 60 min, Rat [2]: 38%
- microsomal stability, percentage of compound remaining after 60 min, Human [5]: 73%
SMILES: O=C(Nc1nc2cccc(-c3ccc(CN4CCOCC4)cc3)n2n1)C1CC1 [Compound 2, N-(5-(4-(morpholinomethyl)phenyl)-[1,2,4]triazolo[1,5-a]pyridin-2-yl)cyclopropanecarboxamide]
- normalized clinical score values (on day 14) (rat CIA model; dose of 10 mg/kg): statistically significant improvements
- Larsen score (rat CIA model; dose of 30 mg/kg): statistically significant increase
- paw swelling readout (rat CIA model; dose of 30 mg/kg): statistically significant increase

- microsomal stability, percentage of compound remaining after 60 min, Rat [2]: 26%
- pEC50 [6]: 6.13
- microsomal stability, percentage of compound remaining after 60 min, Human [5]: 51%
SMILES: O=C(Nc1nc2cccc(-c3ccc(CN4CCC(F)(F)CC4)cc3)n2n1)C1CC1 [Compound 11, Cyclopropanecarboxylic acid {5-[4-(4,4-difluoro-piperidin-1-ylmethyl)-phenyl]-[1,2,4]triazolo[1,5-a]pyridin-2-yl}-amide]

- microsomal stability, percentage of compound remaining after 60 min, Rat [2]: 89%
- microsomal stability, percentage of compound remaining after 60 min, Human [5]: 102%
SMILES: O=C(Nc1nc2cccc(-c3ccc(C(=O)N4CCS(=O)(=O)CC4)cc3)n2n1)C1CC1 [Compound 10, Cyclopropanecarboxylic acid {5-[4-(1,1-dioxo-1-thiomorpholine-4-carbonyl)-phenyl]-[1,2,4]triazolo[1,5-a]yridin-2-yl}-amide]
